The target in assay [1] is T1, HIV-1 IN LEDGF/p75-dependent activity (Human immunodeficiency virus type 1 group M subtype B, UniProt P04585).
T1 construct: Recombinant His and FLAG-IN proteins and His and FLAG-LEDGF proteins were expressed in Escherichia coli strain BL21 (DE3); His or FLAG (separate preparations); made in house; host or cells: Escherichia coli BL21 (DE3)
Briefly: HTRF LEDGF-dependent IN assay. In kind it is biochemical. As to conditions: for IC50: recombinant IN with LEDGF/p75, HTRF; for IN inhibitory activity (in words): LEDGF/p75-dependent IN activity. How it is done:
Recombinant His and FLAG-IN proteins and His and FLAG-LEDGF proteins were expressed in Escherichia coli strain BL21 (DE3) and purified, as previously described.
IN activity in the presence of recombinant LEDGF/p75 protein were determined as described before. IN was pre-incubated in reaction buffer containing 20 mM HEPES pH 7.5, 1 mM DTT, 1% glycerol, 20 mM MgCl2, 0.05% Brij-35 and 0.1 mg/mL BSA with increasing concentration of compounds for 1 h at room temperature. After the addition to this mixture of 9 nM DNA donor substrate, 50 nM DNA acceptor substrate and 50 nM LEDGF/p75 protein (when required), the reaction was incubated at 37 °C for 90 min. The addition of 4 nM of Europium–Streptavidin to the reaction mixture provided the HTRF signal, which was recorded using a Perkin Elmer (Waltham, MA, USA) Victor 3 plate reader with 314 nm for excitation wavelength and 668 and 620 nm for the wavelength of the acceptor and the donor substrates emission, respectively.
A general note: TR-FRET usually uses a lanthanide donor and a delayed reading to cut background.

For assay [2], the target named is T2, HIV-1 RT-RNase H (Human immunodeficiency virus type 1 group M subtype B, UniProt P04585).
T2 construct: preparation and purification of wild type p66/p51 HIV-1 RT; made in house
Briefly: RNase H inhibitory assay (fluorescent RNA/DNA hybrid). In kind it is biochemical. As to conditions: for IC50: wild type p66/p51 HIV-1 RT. As to the method:
The previously reported procedure was used for preparation and purification of wild type p66/p51 HIV-1 RT. Enzyme was stored in a 50% glycerol-containing buffer at −20 °C [32, 46]. An 18-nt 3′-fluorescein-labeled RNA annealed to a complementary 18-nt 5′-dabsyl-labeled DNA was used to determine IC50 values, following a previously described procedure. In brief, 1 μL of each inhibitor dissolved in DMSO was added to a 96-well plate, followed by 10 μL of the proper RT ([…]) in reaction buffer. The addition of 10 μL of RNA/DNA hybrid (2.5 μM) initiated the hydrolysis. Then, 50 mM Tris-HCl, pH 8.0, 60 mM KCl, 10 mM MgCl2, 1% DMSO, 150−800 ng of RT, 250 nM substrate, and increasing concentrations of inhibitor were chosen as final assay conditions. As negative control, wells containing only DMSO were used. Subsequently, the plates were incubated in a Spectramax Gemini EM fluorescence spectrometer for 10 min at 37 °C, measuring the fluorescence (λex = 485 nm; λem = 520 nm) at 1 min intervals in order to determine the linear initial rates in the presence (vi) and absence (vo) of inhibitor. Percent inhibition was assessed as 100(vo − vi)/vo and plotted against log[I]. Prism5 (GraphPad Software 5.0) was used to calculate the IC50 values. All assays were carried out in triplicate.

The target in assay [3] is T1, HIV-1 IN LEDGF/p75-dependent activity. On the set-up: method as in PMID 23631411. To be noted: first experiment, 3,4-catechol analogue of 5; cited from earlier work.
The target of assay [4] is T2, HIV-1 RT-RNase H. Details: method as in PMID 23631411. To be noted: cited from earlier work.

Like-named read-outs stand apart in the source and are kept apart here.

By IC50 is commonly meant the midpoint of a concentration-inhibition curve. With `Cc1sc2nc(-c3ccco3)[nH]c(=O)c2c1C` [Compound 21, 2-(furan-2-yl)-5,6-dimethylthieno[2,3-d]pyrimidin-4(3H)-one], the IC50 came out at 5.75 ± 0.85 µM in assay [1] and 2.5 ± 0.1 µM against HIV-1 RT-RNase H [2].
On to `Cc1sc2nc(-c3ccc[nH]3)[nH]c(=O)c2c1C` [Compound 27, 5,6-dimethyl-2-(1H-pyrrol-2-yl)thieno[2,3-d]pyrimidin-4(3H)-one], for which, in assay [1], the “IN inhibitory activity (in words)” value is “completely IN inactive” and the half-maximal inhibitory concentration (IC50) is more than 50 µM. The IC50 on HIV-1 RT-RNase H [2] was found to be 35.3 ± 1.5 µM.
For `Cc1sc2nc(-c3cccc(O)c3O)[nH]c(=O)c2c1C` [Compound 10, 2-(2,3-dihydroxyphenyl)-5,6-dimethylthieno[2,3-d]pyrimidin-4(3H)-one], the IC50 in assay [1] amounted to 12.6 ± 1.29 µM.
In the case of `CCCc1c(C)sc2nc(-c3ccc(O)c(O)c3)[nH]c(=O)c12` [Compound 29], the IC50 in assay [3] was more than 50 µM.
Turning to `O=c1[nH]c(-c2cc(O)cc(O)c2)nc2sc3c(c12)CCCCC3` [Compound 18], the IC50 in assay [1] was 3.37 ± 0.48 µM.
Consider `Cc1sc2nc(-c3c[nH]c4ccccc34)[nH]c(=O)c2c1C` [Compound 26], for which the IC50 in assay [1] was 2.85 ± 0.85 µM; at HIV-1 RT-RNase H [4], 0.48 ± 0.6 µM.
Regarding `Cc1sc2nc(-c3ccc([N+](=O)[O-])o3)[nH]c(=O)c2c1C` [Compound 23], the results for the IC50 (in assay [1]; at HIV-1 RT-RNase H [4]) were 4.6 ± 0.82 µM and 16.9 ± 1.7 µM, respectively.
Consider `Cc1ccc(-c2nc3sc(C)c(C)c3c(=O)[nH]2)o1` [Compound 22, 5,6-dimethyl-2-(5-methylfuran-2-yl)thieno[2,3-d]pyrimidin-4(3H)-one], for which the IC50 in assay [1] came out at 8.75 ± 0.35 µM; at HIV-1 RT-RNase H [2], 14.4 ± 0.2 µM.
Turning to `Cc1sc2nc(-c3ccccc3O)[nH]c(=O)c2c1C` [Compound 11, 2-(2-hydroxyphenyl)-5,6-dimethylthieno[2,3-d]pyrimidin-4(3H)-one], in assay [1], the IC50 came out at 22 ± 2.8 µM.
As for `Cc1sc2nc(-c3ccc(O)c(O)c3)[nH]c(=O)c2c1C` [Compound 8, 2-(3,4-dihydroxyphenyl)-5,6-dimethylthieno[2,3-d]pyrimidin-4(3H)-one], the IC50 in assay [1] is 24.4 ± 2.6 µM; on HIV-1 RT-RNase H [2], 0.26 ± 0.01 µM; on HIV-1 RT-RNase H [4], 0.26 ± 0.01 µM.
As to `Cc1sc2nc(-c3cc(O)ccc3O)[nH]c(=O)c2c1C` [Compound 13], the IC50 in assay [1] was 85 ± 6 µM.
Still for that read-out and setting: the figure for `CC(C)Cc1csc2nc(-c3ccc(O)c(O)c3)[nH]c(=O)c12` [Compound 20, 2-(3,4-dihydroxyphenyl)-5-isobutylthieno[2,3-d]pyrimidin-4(3H)-one] is 8.5 ± 2.5 µM; for `O=c1[nH]c(-c2ccc(O)cc2O)nc2sc3c(c12)CCCCC3` [Compound 16] it is 10 ± 1 µM.
As to `Cc1sc2nc(-c3ccc([N+](=O)[O-])s3)[nH]c(=O)c2c1C` [Compound 25, 5,6-dimethyl-2-(5-nitrothiophen-2-yl)thieno[2,3-d]pyrimidin-4(3H)-one], the IC50 in assay [1] was 3.2 ± 0.8 µM. Further, at HIV-1 RT-RNase H [2], the “RNase H inhibitory activity (in words)” value is “completely inactive” and the IC50 is more than 50 µM.
Consider `O=c1[nH]c(-c2cc(O)ccc2O)nc2sc3c(c12)CCCCC3` [Compound 17], for which the IC50 in assay [1] worked out at 5.65 ± 0.15 µM.
For the compound `CC1CCCc2sc3nc(-c4ccc(O)c(O)c4)[nH]c(=O)c3c21` (stereo not shown) [Compound 19, 2-(3,4-dihydroxyphenyl)-5-methyl-5,6,7,8-tetrahydrobenzo[4,5]thieno[2,3-d]pyrimidin-4(3H)-one], the IC50 in assay [1] was found to be 5.9 ± 0.5 µM.
The same measure, in the same setting: the figure for `Cc1sc2nc(-c3ccc(O)cc3O)[nH]c(=O)c2c1C` [Compound 12, 2-(2,4-dihydroxyphenyl)-5,6-dimethylthieno[2,3-d]pyrimidin-4(3H)-one] is 22.3 ± 1.57 µM; for `Cc1sc2nc(-c3cc(O)cc(O)c3)[nH]c(=O)c2c1C` [Compound 14, 2-(3,5-dihydroxyphenyl)-5,6-dimethylthieno[2,3-d]pyrimidin-4(3H)-one] it is 3.7 ± 0.73 µM.
For `Cc1sc2nc(-c3cccs3)[nH]c(=O)c2c1C` [Compound 24, 5,6-dimethyl-2-(thiophen-2-yl)thieno[2,3-d]pyrimidin-4(3H)-one], in assay [1], the “IN inhibitory activity (in words)” value is “inactive” and the IC50 was more than 50 µM. In addition, the IC50 at HIV-1 RT-RNase H [2] is 8.2 ± 1.3 µM.
In the case of `O=c1[nH]c(-c2ccc(O)c(O)c2)nc2sc3c(c12)CCCCC3` [Compound 9], the results for the IC50 (in assay [1]; at HIV-1 RT-RNase H [4]) were 18.3 ± 2.3 µM and 0.29 ± 0.11 µM, respectively.
In the case of `O=c1[nH]c(-c2cccc(O)c2O)nc2sc3c(c12)CCCCC3` [Compound 15], the IC50 in assay [1] is 24 ± 1 µM.
Consider `Cc1sc2nc(-c3cccn3C)[nH]c(=O)c2c1C` [Compound 28, 5,6-dimethyl-2-(1-methyl-1H-pyrrol-2-yl)thieno[2,3-d]pyrimidin-4(3H)-one], for which, in assay [1], the “IN inhibitory activity (in words)” value was “completely IN inactive” and the IC50 is more than 50 µM. The compound also displayed an IC50 against HIV-1 RT-RNase H [2] of 14.8 ± 0.6 µM.

Source of the values: paper PMC10537185, “Dihydroxyphenyl- and Heteroaromatic-Based Thienopyrimidinones to Tackle HIV-1 LEDGF/p75-Dependent IN Activity” (Molecules, 2023).
